Laboratory results: patent US6656676B2, “Silver halide color photographic material” (Konica Corporation, priority 2001, dated 2003)

Test: pKa of the oil-soluble basic compound by alkalimetry
Format: physicochemical
Details: ethanol/water solution, alkalimetry at 25° C.
Procedure: As is commonly known, the pKa value refers to a logarithmic acid dissociation constant (Ka), i.e., pKa=−logKa, which is also called an acid electrolytic dissociation exponent. The pKa value of the oil-soluble basic compound can be determined by the alkalimetry, in the following manner. Thus, 50 mg pf a compound sample is dissolved in 40 ml of ethanol and after adding 10 ml of distilled water thereto, 3 ml of a 0.5 mol/l hydrochloric solution and 12 ml of ethanol are further added. The thus prepared solution is subjected to an alkalimetry at a temperature of 25° C. using an alkaline solution (which is comprised of 2.0 g of sodium hydroxide, 200 ml of distilled water and 800 ml of ethanol) and an automatic titration apparatus (Auto Titrator AUT-301, available from TOA electronics, Ltd.).

| Compound | pKa |
| --- | --- |
| CCCCCCCCCCCCCCOC(=O)CCN1CCN(CCC(=O)OCCCCCCCCCCCCCC)CC1 [OC-4] | 6.2 |
| CCCCCCCCCCCCCCOc1ccc(N2CCCCC2)cc1 [Compd.-2] | 5 |
| CC1(C)CC(OC(=O)CCCCCCCCC(=O)OC2CC(C)(C)NC(C)(C)C2)CC(C)(C)N1 [Compd.-3] | 8.7 |
| CCCCCCCCCCCCN1CCN(CCCCCCCCCCCC)CC1 [OC-6] | 7.2 |
